In patent US10857234B2, “Carbonic anhydrase IX inhibitor conjugates and uses thereof” (Endocyte, Inc., priority 2016, dated 2020):
pIC50: −log10 of the molar value.

Columns and labels:
[1] = target: T1, CA IX (Homo sapiens, UniProt Q16790); assay: CAIX competitive binding assay
T1 construct: endogenous in cells; host or cells: HT29 cells under hypoxia (1.3% O2)
Method: (§1) HT29 cells were seeded into 24-well plates at 0.5×10^6 cells per well in McCoy's 5A medium containing 10% fetal bovine serum (FBS) and were allowed to attach for 48 h in an incubator with an atmosphere of 5% CO2/95% air and 37° C. The evening prior to the binding assay, cells were placed in a Hypoxylab workstation set at 10 mm Hg (1.3% O2), 5% CO2, and 37° C. (hypoxic conditions). A single concentration of ^125I-CAIX radioligand was used (2 nM). Serial dilutions of competitors (EC2674 and EC2711) were prepared in McCoy's 5A medium/10% FBS. Binding solutions (500 μL) containing the radioligand and competitor dilutions were placed on the cells, and cells were incubated in the Hypoxylab workstation for 2 h under hypoxic conditions. Cells were then removed from the Hypoxylab and were washed 3 times with ice-cold PBS, pH 7.4. Cells were solubilized with 500 μL of 0.1N NaOH/0.1% Triton X-100. Cell lysates (450 μL) were counted in a Wizard2 gamma counter (Perkin Elmer). CPM values for each competitor concentration were normalized to values for radioligand binding in the absence of competitor.

[2] = target: T1, CA IX; assay: CA IX competitive binding assay (pH 6.8 vs. 7.4 buffers + Zn2+); conditions: HT29 cells, 2 nM 125I-EC2674, 2 hr, 37° C.
Method: as §1, with “CPM values for each competitor concentration were normalized to values for radioligand binding in the absence of competitor.” left out
Following the procedure for the previous competitive binding assay (Example 22), the CAIX Competitive Binding Assay (pH 6.8 vs. 7.4 Buffers+Zn^2+) was carried out with the following modifications from Example 22. […] Only the homologous cold-iodine labeled CAIX ligand, EC2674, was assessed for competitive binding.

Structure (SMILES) | pIC50 ([1]; HT29 cells, 2 nM 125I-EC2674, 2 hr, 37° C., 1.3% O2, McCoy's Medium+10% FBS, read-out: IC50) | pIC50 ([2]; 1.3% O2, pH 6.8 buffer (20 mM BES, 140 mM NaCl, 1 mM ZnSO4)) | pIC50 ([2]; 1.3% O2, pH 7.4 buffer (20 mM Tris, 140 mM NaCl, 1 mM ZnSO4)) | pIC50 [1]
NS(=O)(=O)c1ccc(NC(=O)CN(CCN(CC(=O)Nc2ccc(S(N)(=O)=O)cc2)CC(=O)N[C@@H](CNC(=O)CCc2cc(I)c(O)c(I)c2)C(=O)O)CC(=O)O)cc1 [EC2674] | 6.07 | 7.20 | 7.18 | –
CCCC(=O)OCN(C(=O)[C@@H](NC(=O)[C@H]1CCCCN1C)C(C)CC)[C@H](C[C@@H](OC(C)=O)c1nc(C(=O)N[C@@H](Cc2ccc(O)cc2)C[C@H](C)C(=O)NNC(=O)OCCSSC[C@H](NC(=O)[C@H](CC(=O)O)NC(=O)[C@H](CC(=O)O)NC(=O)[C@H](CC(=O)O)NC(=O)CN(CCN(CC(=O)O)CC(=O)Nc2ccc(S(N)(=O)=O)cc2)CC(=O)Nc2ccc(S(N)(=O)=O)cc2)C(=O)O)cs1)C(C)C (stereo partly shown) [EC2711] | – | – | – | 8.05
